The results in this text go back to ChEMBL document CHEMBL1127315, “Substituted O6-benzylguanine derivatives and their inactivation of human O6-alkylguanine-DNA alkyltransferase” (J Med Chem, 1994).

The target in test [1] is T1, Methylated-DNA--protein-cysteine methyltransferase (Homo sapiens) (UniProt P16455).
T1 sequence (whole entry): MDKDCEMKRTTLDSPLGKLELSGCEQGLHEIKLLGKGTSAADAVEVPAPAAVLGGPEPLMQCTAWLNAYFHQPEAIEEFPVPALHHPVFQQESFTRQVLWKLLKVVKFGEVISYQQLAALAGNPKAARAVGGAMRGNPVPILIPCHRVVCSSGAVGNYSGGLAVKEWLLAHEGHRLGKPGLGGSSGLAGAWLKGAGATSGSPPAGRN
As to conditions: HT-29.

Test [2] addresses T1, Methylated-DNA--protein-cysteine methyltransferase (Homo sapiens). As to conditions: HT-29. The source holds these as a separate data set.
The target is the same in test [3]. As to the kind of experiment: Tested for the effective dose required to produce 50 percent inactivation of O6-alkylguanine-DNA alkyltransferase in HT-29 cell free extract; Inactive.

Activity calls are given as the source filed them. The calls are words filed in the database; no cut-off is given here.

As to `CC12CCC(=O)C=C1CCC1C2CCC2(C)C(OC(=O)Cn3cnc4c(OCc5ccccc5)nc(N)nc43)CCC12` (stereo not given), the results for the ED50 in test [1] and in test [2] were 5000 nM and 500 nM, respectively.

For the molecule `C[C@]12CC[C@H]3[C@@H](CCC4CC(=O)CC[C@@]43C)[C@@H]1CC[C@@H]2OC(=O)Cn1cnc2c(OCc3ccccc3)nc(N)nc21` (stereo not given in full), the ED50 in test [1] was determined as 4000 nM; in test [2], 500 nM.

Turning to `Nc1nc(Oc2ccccc2)c2[nH]cnc2n1`, the ED50 entry in test [3] is “inactive”.
